Consider one compound from ChEMBL document CHEMBL6078680, “Improving the Stability and Anti-Infective Activity of Sea Turtle AMPs Using Multiple Structural Modification Strategies” (J Med Chem, 2024).

Molecules are shown by their SMILES. Activity calls are given as the source filed them. Non-standard residues stand in square brackets, D forms with d. Residues, ends and D or L forms follow the SMILES beside them. Orn = NCCC[C@H](N)C(=O)O

Series [1] has as its system Cell membrane. In words: Induction of cell membrane permeabilization in Escherichia coli ATCC 25922 at 2 times MIC measured for 1 hr by propidium iodide dye-based fluorescence assay. It is filed as subcellular.
Series [2] deals with Acinetobacter baumannii. The series is described as follows: Antimicrobial activity against Acinetobacter baumannii ATCC 19606 assessed as fold increase in MIC incubated for 18 hrs in presence of LPS. The series is classed as functional.
Series [3] is described as follows: Acute toxicity in BALB/c mouse assessed as mortality at 20 mg/kg, iv measured for 24 hrs. The series is classed as organism-based. The following applies: in vivo, read-out: Activity.
The test system of series [4] is Escherichia coli. In words: Antimicrobial activity against Escherichia coli ATCC 25922 assessed as reduction in microbial growth incubated for 18 hrs by broth microdilution method. The series is classed as functional.
Series [5] has as its system Escherichia coli. The series is described as follows: Antibacterial activity against Escherichia coli ATCC 25922 at 1 times MIC in presence of 25 microg/ml exogenous DNA. It is filed as functional, organism-based.
Series [6] deals with Acinetobacter baumannii. The series is described as follows: In vivo antibacterial activity against Acinetobacter baumannii ATCC19606 infected in BALB/c mouse assessed as reduction in bacterial load in liver at 15 mg/kg, ip measured after 12 hrs. It is filed as functional, organism-based.
The subject of series [7] is Acinetobacter baumannii. The series is described as follows: Antipersister-activity against Acinetobacter baumannii ATCC 19606 assessed as elimination of persister cells at 50 times MIC preincubated adherent persistent cells with colistin incubation for 24 hrs. The series is classed as functional.
Series [8] deals with Acinetobacter baumannii. The series is described as follows: In vivo antibacterial activity against Acinetobacter baumannii ATCC19606 infected in BALB/c mouse assessed as reduction in bacterial load in abdominal cavity at 15 mg/kg, ip measured after 12 hrs. It is filed as functional, organism-based.
In series [9] the target is Trypsin (Homo sapiens, UniProt P07477+P07478+P35030). In words: Stability of compound assessed as trypsin (unknown origin) mediated drug degradation […] measured at 24 hrs by RP-HPLC analysis. The conditions noted are these: read-out: Activity. It is filed as ADME, protein assay.
Series [10] has as its system Staphylococcus aureus. The series is described as follows: Antimicrobial activity against Staphylococcus aureus 08032706 assessed as reduction in microbial growth incubated for 18 hrs by broth microdilution method. The series is classed as functional. A general note: Broth dilution looks for growth in wells or tubes with falling amounts of substance.
The test system of series [11] is Staphylococcus aureus. In words: Antimicrobial activity against Staphylococcus aureus CMCC 26003 at 5 times MIC measured at 180 mins. It is filed as functional, organism-based.
Series [12] concerns Acinetobacter baumannii. In words: In vivo antibacterial activity against Acinetobacter baumannii ATCC19606 infected in BALB/c mouse assessed as reduction in bacterial load in kidney at 15 mg/kg, ip measured after 12 hrs. It is filed as functional, organism-based.
Series [13] has as its system Staphylococcus aureus. The series is described as follows: Antibiofilm activity against Staphylococcus aureus CMCC 26003 assessed as inhibition of biofilm formation incubated for 48 hrs by crystal violet staining based analysis. The series is classed as functional, organism-based.
Series [14] relates to Acinetobacter baumannii. In words: In vivo antibacterial activity against Acinetobacter baumannii ATCC19606 infected in BALB/c mouse assessed as survival at 15 mg/kg, ip administered for 12 hrs and measured after 3 hrs. The series is classed as functional. The following applies: time 15 hrs.
Series [15] has as its system Acinetobacter baumannii. The series is described as follows: Antibiofilm activity against Acinetobacter baumannii ATCC 19606 assessed as inhibition of biofilm formation incubated for 48 hrs by crystal violet staining based analysis. The series is classed as functional, organism-based.
Series [16] can be described thus: Acute toxicity in BALB/c mouse assessed as mortality at 50 mg/kg, iv measured for 24 hrs. The following applies: in vivo, read-out: Activity. The series is classed as organism-based.
Series [17] has as its system Cell membrane. In words: Induction of cell membrane permeabilization in Staphylococcus aureus CMCC 26003 at 5 times MIC measured for 1 hr by propidium iodide dye-based fluorescence assay. The series is classed as subcellular.
Series [18] deals with Cell membrane. In words: Induction of outer membrane permeabilization in Escherichia coli ATCC 25922 at 5 times MIC measured for 1 hr by NPN-dye based fluorescence analysis. It is filed as subcellular.
The subject of series [19] is RAW264.7. The series is described as follows: Cytotoxicity against mouse RAW264.7 cells upto 200 microg/ml by MTT assay. It is filed as toxicity, cell-based. The conditions noted are these: dose < 200 µg/ml. For orientation: Formazan colour is commonly taken as a measure of viable cells.
For series [20], the system named is Escherichia coli. In words: Antimicrobial activity against Escherichia coli ATCC 25922 assessed as fold increase in MIC incubated for 18 hrs in presence of LPS. It is filed as functional.
Series [21] relates to Cell membrane. The series is described as follows: Induction of cell membrane permeabilization in Escherichia coli ATCC 25922 by propidium iodide dye-based fluorescence assay. The series is classed as subcellular.
For series [22], the system named is Acinetobacter baumannii. The series is described as follows: Antipersister-activity against Acinetobacter baumannii ATCC 19606 assessed as elimination of persister cells at 4 times MIC preincubated adherent persistent cells with colistin incubation for 24 hrs. It is filed as functional.
Series [23] relates to Staphylococcus aureus. In words: Antibiofilm activity against Staphylococcus aureus CMCC 26003 assessed as biofilm eradication at 8 times MIC incubated for 24 hrs by crystal violet staining based analysis. It is filed as functional.

As to `CC[C@H](C)[C@H](NC(=O)[C@H](CCCN)NC(=O)[C@H](CO)NC(=O)[C@H](Cc1c[nH]cn1)NC(=O)[C@H](CCCN)NC(=O)[C@H](CC(C)C)NC(=O)[C@@H](NC(=O)[C@H](CCCN)NC(=O)CNC(=O)[C@H](CC(C)C)NC(=O)[C@H](CCC(N)=O)NC(=O)[C@H](CCCN)NC(=O)[C@H](CCCN)NC(=O)[C@@H](NC(=O)[C@H](CCCN)NC(=O)[C@H](CCCN)NC(=O)[C@@H](N)Cc1ccccc1)C(C)C)C(C)C)C(=O)N[C@H](C(=O)N[C@H](C(=O)NCC(=O)NCC(=O)N[C@@H](CCCN)C(=O)N[C@@H](CCSC)C(=O)N[C@@H](CCCN)C(=O)N[C@@H](Cc1ccccc1)C(=O)O)C(C)C)[C@@H](C)O` (H-F[Orn][Orn]V[Orn][Orn]QLG[Orn]VL[Orn]HS[Orn]ITVGG[Orn]M[Orn]F-OH), the Activity in [1] was over 90%; in [7] it was 60%; in series [14], over 60%; in [17], 24.6%; in series [18], 100%; in series [19], “Non-toxic”. Moreover, the Activity result is “Dose-dependent-effect” in [21], 74.5% in series [22] and 50% in [23]. The “fold change (FC)” value in [2] and in series [20] was 16 each time. Moreover, the mortality at 24 h in [3] and in series [16] was 0% in each case. In addition, the MIC – broadly, the smallest concentration in the dilution series that meets the test's criterion for growth inhibition – in [4] was 9.38 µg/mL; in series [10], 37.5 µg/mL. Besides, the outcome in series [5] and in [11] was inactive. The outcome in [6], in series [8], in series [12], in [13] and in [15] was Active. Further, the metabolised at 24 h in [9] was under 60%.
